{"source": "patent US20040116516A1", "about": "(Boehringer Ingelheim Pharma GmbH & Co. KG, priority 2002, published 2004)", "tested_on": "arachidonic acid induced mouse ear inflammation", "assay": "arachidonic acid induced mouse ear inflammation test (MPO as index of neutrophil accumulation)", "assay_type": "in vivo, mice", "conditions": "for maximum inhibitory effect: group5; for effect on arachidonic acid induced ear inflammation in mice (in words): single compounds, oral administration", "procedure": "Female albino mice (Han:NMRI) obtained from Interfauna and weighing about 20-25 g were used. The animals were provided with standardised pellet diet (Altromin 8013) and had tap water freely available. The animals were accommodated in a climatized room with a 12 hours light/dark cycle and kept in groups.\nThe compound of formula IA and meloxicam were administered orally (0.2 ml/10 g bw) 30 min. before arachidonic acid challenge. Meloxicam was given twice: one dose 16 hours and the second dose 30 minutes before challenge. For every day there was a concurrent control. Then number of animals per group was 7. The study compounds were suspended in 1% methylcellulose (Tylose MH 300, Fluka, CH-9470 Buchs). The experiment was run in five groups. Every group contained one control, two doses of meloxicam, two doses of (IA), and one dose of the combination of the two compounds.\nMice were lightly anesthetized by ether and 1 mg arachidonic acid (10 μl) was applied to each side of the left ear. […] The animals were sacrificed by ether 6 hours later, and a biopsy (diameter 8 mm) was punched out from both ears to assess an increase of neutrophils in the left ear compared with the right ear. Tissue samples were homogenized in 1 ml 0.5% HTAB (Hexadecyl-trimethyl-ammonium-bromide; Sigma H-5882; solved in 0.05 M phosphate buffer, pH 6.0) using a tissue homogenizer (IKA-Ultraturrax T5; Janke & Kunkel, Staufen/Breisgau) at 30000 RPM for 15 seconds. After centrifugation (16000 G, 5 min) the supernatants were frozen until processing for myeloperoxidase (MPO). Determination in the supernatants for MPO, a neutrophil marker enzyme, served as a quantitative index for the neutrophil accumulation.\nMPO was determined spectrophotometrically at 450 nm using a micro plate version of the method of Bradley (1982) and a micro plate reader (Vmax; Molecular Devices, Palo Alto) suitable for kinetic measurements and expressed as mean optical density per minute.\nFor each individual the response myeloperoxidase activity (MPO) in optical density per minute (oD/min) was measured.\nFor the comparisons the nonparametric statistical methods Kruskal-Wallis-One-Way-ANOVA and the Wilcoxon-Two-Sample-Test (2 sided) have been used. For the first and last comparisons also Bonferroni-Holm adjusted p-values have been calculated.", "data": [{"smiles": "CCOC(=O)N=C(N)c1ccc(OCc2cccc(COc3ccc(C(C)(C)c4ccc(O)cc4)cc3)c2)cc1", "values": [{"measurement": "maximum inhibitory effect", "setting": "supra-maximum doses 0.8 and 1.6 mg/kg p.o.", "value": 66, "unit": "%"}, {"measurement": "effect on arachidonic acid induced ear inflammation in mice (in words)", "value": "inhibited arachidonic acid induced ear inflammation in mice"}]}, {"smiles": "Cc1cnc(NC(=O)C2=C(O)c3ccccc3S(=O)(=O)N2C)s1", "note": "[Meloxicam, meloxicam]", "values": [{"measurement": "maximum inhibitory effect", "setting": "supra-maximum doses 16 and 32 mg/kg p.o.", "value": 37, "unit": "%"}, {"measurement": "effect on arachidonic acid induced ear inflammation in mice (in words)", "value": "inhibited arachidonic acid induced ear inflammation in mice"}]}]}
